Assay results taken from US5187165A, “Memory enhancing and analgesic 1,2,3a,8,8a-hexahydro-3a,8(and 1,3a,8)-di(and tri)methylpyrrolo[2,3-b]indoles” (priority 1988, dated 1993).
Structures can show the parent of a compound that is named as a salt.

Columns and labels:
[1] = Acute toxicity (LD50); format: in vivo; conditions: in vivo, ip, death within 24 hours
Method: LD50 is determined by the dose (mg/kg) at which 50% of the test animals die within 24 hours. In many cases this dose is an approximation.

[2] = test system: norepinephrine uptake; format: biochemical; conditions: rat brain synaptosomes, 50 nM 3H-NE, 37° C., 5 min; read-out: Reuptake Inhibition of neurotransmitters, Norepinephrine
[3] = test system: scopolamine-induced memory deficit; test: Dark Avoidance Assay (scopolamine induced memory deficit reversal); format: in vivo, mice; conditions: Mus musculus, sc, 24 h, read-out: % of Animals with Scopolamine Induced Memory Deficit Reversal
Method: In this assay mice are tested for their ability to remember an unpleasant stimulus for a period of 24 hours. A mouse is placed in a chamber that contains a dark compartment; a strong incandescent light drives it to the dark compartment, where an electric shock is administered through metal plates on the floor. The animal is removed from the testing apparatus and tested again, 24 hours later, for the ability to remember the electric shock.
If scopolamine, an anticholinergic that is known to cause memory impairment, is administered before an animal's initial exposure to the test chamber, the animal re-enters the dark compartment shortly after being placed in the test chamber 24 hours later. This effect of scopolamine is blocked by an active test compound, resulting in a greater interval before re-entry into the dark compartment.
The results for an active compound are expressed as the percent of a group of animals in which the effect of scopolamine is blocked, as manifested by an increased interval between being placed in the test chamber and re-entering the dark compartment.

[4] = test system: yohimbine toxicity; test: animal or person; format: in vivo, mice; conditions: 30 mg/kg s.c., alone (4 out of 400 mice)
Method: The potentiation of yohimbine toxicity is considered an additional test for screening antidepressant drugs. The method used in this invention is as follows:
Male mice weighing 20 to 30 grams are used. They are housed under standard laboratory conditions with free access to food and water. Compounds are dissolved in distilled water and a suitable surfactant is added in case of poor solubility. Yohimbine hydrochloride is dissolved in distilled water as well. Both compound and yohimbine are administered in a volume of […].
Compounds and vehicle are administered orally 60 minutes prior to a sublethal dose (30 mg/kg s.c.) of yohimbine hydrochloride which alone causes death in about […] of mice (4 out of 400). Ten mice per group are then placed in plastic cages (26×10×16 cm) with food and water available ad libitum. Mortality rate is assessed 18 hours postdosing. ED50 is defined as dose of drug causing death in 5/10 mice and is calculated by probit analysis.

Structure (SMILES)	LD50 at 24 h [1]	IC50 [2]	responders at 0.31 mg/kg [3]	death in mice of yohimbine hydrochloride alone [4]
CN1CC[C@@]2(C)c3cc(OC(=O)Nc4ccncc4)ccc3N(C)[C@@H]12 [(3aS-cis)-1,2,3,3a,8,8a-Hexahydro-1,3a,8-trimethylpyrrolo[2,3-b]indol-5-ol,4-pyridinyl carbamate ester]	~40 mg/kg	> 20 µM	27%	–
COC(=O)[C@@H]1[C@H]2C[C@H]3c4[nH]c5ccccc5c4CCN3C[C@@H]2CC[C@@H]1O [yohimbine hydrochloride, reference compound]	–	–	–	about 1%
